{"source": "paper PMC5958743", "about": "“A Novel Catecholopyrimidine Based Small Molecule PDE4B Inhibitor Suppresses Inflammatory Cytokines in Atopic Mice” (Frontiers in Pharmacology, 2018)", "key": {"[1]": {"target": "T1, PDE1A (Homo sapiens, UniProt P54750)", "T1 construct": "purchased BPS Biosciences", "T1 sequence (P54750 whole entry)": "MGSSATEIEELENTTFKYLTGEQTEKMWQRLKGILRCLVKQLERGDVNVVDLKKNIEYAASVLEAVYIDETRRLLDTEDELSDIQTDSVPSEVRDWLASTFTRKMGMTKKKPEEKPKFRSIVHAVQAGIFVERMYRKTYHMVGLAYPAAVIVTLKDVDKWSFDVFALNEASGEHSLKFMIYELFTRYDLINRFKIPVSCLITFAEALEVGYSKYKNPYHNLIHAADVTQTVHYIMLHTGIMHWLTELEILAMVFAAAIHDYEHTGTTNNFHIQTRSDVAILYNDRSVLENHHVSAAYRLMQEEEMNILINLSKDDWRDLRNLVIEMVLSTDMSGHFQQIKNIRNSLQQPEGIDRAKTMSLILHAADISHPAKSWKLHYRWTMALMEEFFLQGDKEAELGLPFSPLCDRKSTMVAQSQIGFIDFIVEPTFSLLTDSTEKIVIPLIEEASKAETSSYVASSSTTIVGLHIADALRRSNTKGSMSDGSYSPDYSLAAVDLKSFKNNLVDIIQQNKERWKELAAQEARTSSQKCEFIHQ", "experiment": "PDE enzyme inhibitor assay (LANCE Ultra cAMP), PDE1A", "type": "biochemical", "details": "0.1 ng/well enzyme, 3 nM cAMP, 37°C 1 h", "method": "(§1) The enzyme inhibition assay was performed against human PDE enzymes (PDE1A, PDE3A, PDE4A, PDE4B, PDE4C, PDE4D, and PDE7A; BPS Biosciences, San Diego, CA, United States) according to the manufacturer’s instructions (LANCE Ultra cAMP assay kit; Perkin Elmer, United States). In each well, 5 μl of 3 nM cAMP, 2.5 μl of PDE enzyme (0.1 ng/well), and 2.5 μl of inhibitor solution were added, and incubated at 37°C for 1 h. After incubation, 5 μL each of Eu-cAMP and ULight-anti-cAMP detection reagent supplemented with 1 mM of IBMX were added. The reaction mixture was incubated at 37°C for 1 h. After incubation, emission signals were collected at 665 nm using EnVision Multilable Reader (Perkin Elmer, United States)."}, "[2]": {"target": "PDE3B (Homo sapiens, UniProt Q13370)", "sequence (Q13370 whole entry)": "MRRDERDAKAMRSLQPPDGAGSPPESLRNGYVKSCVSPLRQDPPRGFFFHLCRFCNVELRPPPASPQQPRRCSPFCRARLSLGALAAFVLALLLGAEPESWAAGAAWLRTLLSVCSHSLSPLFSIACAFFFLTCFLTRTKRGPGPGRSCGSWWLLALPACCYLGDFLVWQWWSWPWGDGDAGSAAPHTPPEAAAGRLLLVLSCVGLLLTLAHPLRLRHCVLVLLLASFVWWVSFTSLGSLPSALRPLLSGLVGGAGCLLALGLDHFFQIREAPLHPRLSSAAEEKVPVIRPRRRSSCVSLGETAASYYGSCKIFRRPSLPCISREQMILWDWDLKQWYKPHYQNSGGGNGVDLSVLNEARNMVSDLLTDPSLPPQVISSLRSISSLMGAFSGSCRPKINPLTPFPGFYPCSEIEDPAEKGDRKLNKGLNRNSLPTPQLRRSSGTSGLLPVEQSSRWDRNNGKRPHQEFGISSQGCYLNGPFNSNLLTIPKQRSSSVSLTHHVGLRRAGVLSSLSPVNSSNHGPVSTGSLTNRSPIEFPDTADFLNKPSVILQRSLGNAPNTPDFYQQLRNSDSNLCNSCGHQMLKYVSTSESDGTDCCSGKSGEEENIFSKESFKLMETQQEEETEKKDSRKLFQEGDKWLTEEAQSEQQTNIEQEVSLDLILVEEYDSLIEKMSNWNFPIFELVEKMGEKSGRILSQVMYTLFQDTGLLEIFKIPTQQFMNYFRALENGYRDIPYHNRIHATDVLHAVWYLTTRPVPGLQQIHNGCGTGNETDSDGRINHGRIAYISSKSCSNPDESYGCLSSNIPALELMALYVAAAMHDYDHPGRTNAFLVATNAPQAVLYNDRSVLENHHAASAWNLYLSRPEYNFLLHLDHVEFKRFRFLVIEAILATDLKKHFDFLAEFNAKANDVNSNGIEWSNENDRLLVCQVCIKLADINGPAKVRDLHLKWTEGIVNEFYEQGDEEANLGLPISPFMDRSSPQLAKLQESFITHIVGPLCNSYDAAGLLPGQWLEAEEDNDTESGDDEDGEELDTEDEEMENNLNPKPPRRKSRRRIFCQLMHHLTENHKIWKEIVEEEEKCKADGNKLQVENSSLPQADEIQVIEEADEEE", "experiment": "PDE enzyme inhibitor assay (LANCE Ultra cAMP), PDE3B", "type": "biochemical", "details": "0.1 ng/well enzyme, 3 nM cAMP, 37°C 1 h"}, "[3]": {"target": "T2, PDE4A4 (Homo sapiens, UniProt P27815)", "T2 construct": "purchased BPS Biosciences", "experiment": "PDE enzyme inhibitor assay (LANCE Ultra cAMP), PDE4A", "type": "biochemical", "details": "0.1 ng/well enzyme, 3 nM cAMP, 37°C 1 h", "method": "as §1"}, "[4]": {"target": "T3, PDE4B1 (Homo sapiens, UniProt Q07343)", "T3 construct": "purchased BPS Biosciences", "T3 sequence (Q07343 whole entry)": "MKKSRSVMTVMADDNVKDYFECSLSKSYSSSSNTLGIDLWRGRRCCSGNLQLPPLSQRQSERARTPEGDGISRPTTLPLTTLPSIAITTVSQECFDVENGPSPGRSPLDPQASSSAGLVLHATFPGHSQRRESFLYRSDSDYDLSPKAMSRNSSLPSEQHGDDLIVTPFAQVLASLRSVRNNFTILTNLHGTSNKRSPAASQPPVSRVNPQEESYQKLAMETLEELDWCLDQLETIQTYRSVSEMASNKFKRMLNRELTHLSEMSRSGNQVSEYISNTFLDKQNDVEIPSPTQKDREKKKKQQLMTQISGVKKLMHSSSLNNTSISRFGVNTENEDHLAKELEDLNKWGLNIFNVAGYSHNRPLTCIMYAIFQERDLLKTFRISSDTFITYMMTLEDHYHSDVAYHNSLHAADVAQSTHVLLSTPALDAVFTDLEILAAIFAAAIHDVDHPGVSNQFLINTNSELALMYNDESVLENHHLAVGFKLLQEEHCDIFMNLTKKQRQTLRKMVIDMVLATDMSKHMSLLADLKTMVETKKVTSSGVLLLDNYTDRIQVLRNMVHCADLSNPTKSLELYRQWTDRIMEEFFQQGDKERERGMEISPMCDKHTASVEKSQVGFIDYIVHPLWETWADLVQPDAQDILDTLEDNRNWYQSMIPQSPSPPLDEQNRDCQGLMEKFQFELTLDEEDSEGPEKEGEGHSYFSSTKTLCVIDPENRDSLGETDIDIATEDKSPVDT", "experiment": "PDE enzyme inhibitor assay (LANCE Ultra cAMP), PDE4B", "type": "biochemical"}, "[5]": {"target": "T4, PDE4C1 (Homo sapiens, UniProt Q08493)", "T4 construct": "purchased BPS Biosciences", "T4 sequence (Q08493 whole entry)": "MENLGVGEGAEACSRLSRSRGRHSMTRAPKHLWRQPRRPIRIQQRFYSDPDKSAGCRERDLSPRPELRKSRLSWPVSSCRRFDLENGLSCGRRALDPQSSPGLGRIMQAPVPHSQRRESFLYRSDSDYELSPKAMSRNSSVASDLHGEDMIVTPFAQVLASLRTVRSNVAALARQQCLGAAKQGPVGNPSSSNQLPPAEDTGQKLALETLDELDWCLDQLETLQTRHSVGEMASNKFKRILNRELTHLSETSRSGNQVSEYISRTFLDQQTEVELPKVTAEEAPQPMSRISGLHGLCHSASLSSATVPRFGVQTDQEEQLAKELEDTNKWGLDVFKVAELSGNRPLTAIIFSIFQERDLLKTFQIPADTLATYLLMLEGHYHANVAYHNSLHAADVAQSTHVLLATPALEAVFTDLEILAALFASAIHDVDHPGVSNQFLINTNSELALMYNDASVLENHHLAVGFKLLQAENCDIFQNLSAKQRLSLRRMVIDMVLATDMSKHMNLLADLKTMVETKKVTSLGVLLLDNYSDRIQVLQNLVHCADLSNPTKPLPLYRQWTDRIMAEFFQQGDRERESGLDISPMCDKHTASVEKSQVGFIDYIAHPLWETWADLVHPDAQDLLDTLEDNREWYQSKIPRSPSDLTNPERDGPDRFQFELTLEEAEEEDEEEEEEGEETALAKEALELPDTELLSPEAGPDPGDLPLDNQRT", "experiment": "PDE enzyme inhibitor assay (LANCE Ultra cAMP), PDE4C", "type": "biochemical", "details": "0.1 ng/well enzyme, 3 nM cAMP, 37°C 1 h", "method": "as §1"}, "[6]": {"target": "T5, PDE4D7 (Homo sapiens, UniProt Q08499)", "T5 construct": "purchased BPS Biosciences", "T5 sequence (Q08499 1-748 isoform Q08499-11)": "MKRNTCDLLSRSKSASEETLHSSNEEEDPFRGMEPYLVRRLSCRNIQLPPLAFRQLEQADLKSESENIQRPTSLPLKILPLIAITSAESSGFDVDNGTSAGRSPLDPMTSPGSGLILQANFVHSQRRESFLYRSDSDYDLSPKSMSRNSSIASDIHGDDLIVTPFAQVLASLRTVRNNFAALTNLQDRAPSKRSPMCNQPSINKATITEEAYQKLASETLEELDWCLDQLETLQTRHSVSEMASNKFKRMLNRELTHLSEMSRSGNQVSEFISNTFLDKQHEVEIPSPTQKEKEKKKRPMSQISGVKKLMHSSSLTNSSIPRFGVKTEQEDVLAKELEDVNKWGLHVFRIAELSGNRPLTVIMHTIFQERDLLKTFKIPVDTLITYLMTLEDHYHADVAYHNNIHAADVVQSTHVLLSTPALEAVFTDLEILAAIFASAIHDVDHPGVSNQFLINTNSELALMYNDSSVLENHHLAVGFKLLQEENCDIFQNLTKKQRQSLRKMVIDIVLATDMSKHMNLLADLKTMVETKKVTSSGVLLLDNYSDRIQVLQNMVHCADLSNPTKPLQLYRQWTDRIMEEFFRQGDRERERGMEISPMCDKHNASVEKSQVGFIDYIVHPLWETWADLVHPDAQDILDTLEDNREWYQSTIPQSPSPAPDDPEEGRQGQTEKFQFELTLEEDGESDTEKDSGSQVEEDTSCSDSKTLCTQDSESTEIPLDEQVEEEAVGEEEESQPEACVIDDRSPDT", "experiment": "PDE enzyme inhibitor assay (LANCE Ultra cAMP), PDE4D", "type": "biochemical", "details": "0.1 ng/well enzyme, 3 nM cAMP, 37°C 1 h", "method": "as §1"}, "[7]": {"target": "T6, PDE7 (Homo sapiens, UniProt Q13946)", "T6 construct": "purchased BPS Biosciences", "T6 sequence (Q13946 whole entry)": "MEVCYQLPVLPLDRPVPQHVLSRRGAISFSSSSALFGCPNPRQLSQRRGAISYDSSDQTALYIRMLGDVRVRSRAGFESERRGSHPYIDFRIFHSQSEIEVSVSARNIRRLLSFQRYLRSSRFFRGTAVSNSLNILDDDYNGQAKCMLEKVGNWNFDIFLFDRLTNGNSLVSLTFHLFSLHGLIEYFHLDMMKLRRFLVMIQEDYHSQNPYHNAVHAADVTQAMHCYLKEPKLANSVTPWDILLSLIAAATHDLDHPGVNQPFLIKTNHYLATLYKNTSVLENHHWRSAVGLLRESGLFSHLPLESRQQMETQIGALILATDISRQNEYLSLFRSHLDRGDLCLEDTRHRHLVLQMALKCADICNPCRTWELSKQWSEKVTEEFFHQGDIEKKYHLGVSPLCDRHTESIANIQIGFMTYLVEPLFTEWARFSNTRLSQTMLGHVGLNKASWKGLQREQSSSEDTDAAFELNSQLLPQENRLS", "experiment": "PDE enzyme inhibitor assay (LANCE Ultra cAMP), PDE7", "type": "biochemical", "details": "0.1 ng/well enzyme, 3 nM cAMP, 37°C 1 h", "method": "as §1"}, "[8]": {"test_system": "DNCB-induced NC/Nga mice", "experiment": "DNCB-induced atopic dermatitis model, evaluation of skin lesion and organs", "type": "in vivo, mouse", "method": "(§2) Male NC/Nga mice, 7-weeks-old, were purchased from Central Lab Animal Inc., South Korea. All mice were housed in specific pathogen-free conditions at the animal facility center of the College of Pharmacy at Seoul National University (Seoul, Korea), and were maintained at 24 – 26°C with a 12 h light and dark cycle. Animal experiments were conducted in accordance with protocols approved by the Institutional Animal Care and Use Committee of Seoul National University.\n(§3) NC/Nga mice were classified into six groups (n = 6): (1) vehicle alone, acetone-olive oil (Sigma-Aldrich, St. Louis, MO, United States) in a ratio of 3:1 was used as a vehicle; (2) 1% of compound-1 with vehicle alone; (3) 0.3% of compound-2 with vehicle alone; (4) DNCB+vehicle; (5) DNCB + 1% of compound-1 mixed with vehicle; and (6) DNCB + 0.3% of compound-2 mixed with vehicle. DNCB (Sigma-Aldrich, St. Louis, MO, United States) was used to induce AD on the dorsal skin of the mice. Compound 1 and 2 were dissolved in 150 μl of vehicle and topically applied on the atopic tissue. Hair on the backs of the mice were removed using an electric clipper. Two days later, 150 μl of 1% DNCB was dissolved in the vehicle and applied on the dorsal skin twice with an interval period of 4 days. Afterward, 150 μl of 0.2% DNCB dissolved in the vehicle was applied to challenge the dorsal skin twice-a-week for 5 weeks. AD-induced mice were co-treated with either compound-1 or compound-2 once daily from day six onward until the end of the experiments.\nDermatitis score was measured according to a previously established method, once-a-week for 5 weeks ([Matsuda et al., 1997]). Skin features of dermatitis, such as erythema/hemorrhage, edema, excoriation/erosion, and scaling/dryness were considered in the evaluation. Each symptom was scored as follows: 0 (none); 1 (mild); 2 (moderate); and 3 (severe). The sum of all the scores was defined as the dermatitis score of individual mice, which ranged between 0 and 12. In addition, the scratching behavior of the experimental animals was measured once-a-week for 5 weeks. Specifically, we measured the frequency with which the mice rubbed their dorsal skin, hind paws, nose, and ears for 10 min."}, "[9]": {"test_system": "DNCB-induced NC/Nga mice", "experiment": "DNCB-induced atopic dermatitis model, histopathology and immunohistochemistry of dorsal skin", "type": "in vivo, mouse", "method": "as §2, §3\nSkin samples collected from the experimental mice were fixed by using 10% neutral buffered formalin, and embedded in paraffin. 4-μm thin tissue sections were prepared and stained with hematoxylin and eosin (H&E; Sigma-Aldrich, United States). To investigate the mast cell infiltration, sections were stained with toluidine blue (Sigma-Aldrich, United States). For immunohistochemical analysis, tissue sections were microwaved in sodium citrate buffer for 10 min to retrieve the antigen/epitope. After incubating with 0.1% triton X-100 containing phosphate buffered saline (PBS), sections were blocked with 10% FBS. Then, sections were incubated overnight with primary antibodies specific for IL-4, 5, 17, IFN-γ, and CD4, respectively (Santa Cruz Biotechnology, Santa Cruz, CA, United States). After treatment with 0.3% H2O2 in 0.1 M PBS for 15 min, sections were incubated with HRP-conjugated secondary antibodies specific for IL-4, 5, 17, IFN-γ, and CD4 for 1 h at room temperature. Diaminobenzidine was used to detect peroxidase activity, which was photographed using an Olympus AX70 light microscope (Tokyo, Japan)."}, "[10]": {"test_system": "DNCB-induced NC/Nga mice", "experiment": "DNCB-induced atopic dermatitis model, serum IgE and cytokines by ELISA", "type": "in vivo, mouse", "method": "as §2, §3\nOn the final day of the experimental scheme, blood samples were collected from the experimental animals. Serum was isolated and stored at -80°C along with protease inhibitor cocktail for later use (Thermo Fisher Scientific, United States). Serum IL-4, IL-5, IL-17, IFN-γ, and IgE levels were measured according to the manufacturer’s instructions (Biolegend, San Diego, CA, United States; IL-4-431101; IL-17-432501; IL-5-431204; IFN-γ- 430801; IgE-432401; TNF-α- 430901). Serum samples were diluted five-fold for the cytokine assay. 10,000-fold diluted serum samples were utilized for the IgE assay. Absorbance was measured immediately at 492 nm using a multiplate reader (Molecular Devices Spectramax M5, Sunnyvale, CA, United States)."}, "[11]": {"test_system": "Raw 264.7 cells", "experiment": "Intracellular cAMP in LPS-stimulated macrophage cell line (ELISA)", "type": "cell-based", "details": "30 nM compound 1 or 15 nM compound 2 for 1 h, then 1 μM LPS 30 min", "method": "(§4) The macrophage cell line, Raw 264.7 was maintained for 24 h in serum free DMEM medium. Then, cells were incubated with 30 nM of compound 1 and 15 nM of compound 2 for 1 h. After incubation, 1 μM of LPS (Sigma-Aldrich, United States) was added and incubated for 30 min at 37°C in a humidified 5% CO2 atmosphere. Finally, cells were lysed and supernatants were harvested. Intracellular cAMP levels were measured using the cAMP ELISA kit according to the manufacturer’s instruction (ADI-900-066; Enzo Life Sciences, United States). Similarly, TNFα level was assayed by ELISA analysis according to the manufacturer’s protocol (LEGEND MAX^TM Human TNF-α ELISA Kit, San Diego, CA, United States). Concentration is expressed in pg/mL."}, "[12]": {"test_system": "Raw 264.7 cells", "experiment": "LPS-induced TNF-α in macrophage cell line (ELISA)", "type": "cell-based", "details": "30 nM compound 1 or 15 nM compound 2, 1 μM LPS 30 min", "method": "as §4"}, "[13]": {"details": "DNCB-induced mice, topical 1% compound 1 or 0.3% compound 2, vs DNCB alone"}, "[14]": {"details": "topical 1% compound 1 or 0.3% compound 2, vs DNCB alone"}, "[15]": {"details": "topical 1% compound 1 (p < 0.05) or 0.3% compound 2 (p < 0.01), vs DNCB alone"}}}
{"smiles": "COc1ccc(NC(=O)c2cnc(SC)nc2N2CCOCC2)cc1OC", "note": "[compound 1, N-(3,4-dimethoxyphenyl)-2-(methylthio)-4-morpholinopyrimidine-5-carboxamide]", "values": [{"measurement": "IC50", "setting": "[1]", "value": "756 ± 59", "unit": "nM"}, {"measurement": "IC50", "setting": "[2]", "value": "800 ± 45.8", "unit": "nM"}, {"measurement": "IC50", "setting": "[3]", "value": "45 ± 3.54", "unit": "nM"}, {"measurement": "IC50", "setting": "[4]; 0.1 ng/well enzyme, 3 nM cAMP, 37°C 1 h", "value": "31 ± 7.17", "unit": "nM"}, {"measurement": "specificity against PDE4B compared to other PDE enzymes", "setting": "[4]; versus PDE1A, PDE3B, PDE4A, PDE4C, PDE4D, PDE7", "value": "not exclusive to PDE4B alone"}, {"measurement": "IC50", "setting": "[5]", "value": "77 ± 8.8", "unit": "nM"}, {"measurement": "IC50", "setting": "[6]", "value": "220 ± 16.3", "unit": "nM"}, {"measurement": "IC50", "setting": "[7]", "value": "389 ± 26.3", "unit": "nM"}, {"measurement": "dorsal skin thickness", "setting": "[8]; DNCB-induced mice, end of experiment, topical 1% compound 1 or 0.3% compound 2, DNCB alone 1.19 mm, control 0.45 mm", "value": 0.78, "unit": "mm"}, {"measurement": "spleen weight", "setting": "[8]; [13]", "value": "significantly reduced"}, {"measurement": "subiliac lymph node size", "setting": "[8]; [13]", "value": "drastically reduced"}, {"measurement": "subiliac lymph node weight", "setting": "[8]; [13]", "value": "drastically reduced"}, {"measurement": "week after which significant reduction in dermatitis score was observed", "setting": "[8]; DNCB-induced mice, topical once daily, 1% compound 1 or 0.3% compound 2", "value": "third"}, {"measurement": "scratching frequency (DNCB-induced itching sensation)", "setting": "[8]; DNCB-induced mice, topical once daily, 1% compound 1 or 0.3% compound 2, measured once-a-week for 5 weeks", "value": "significantly (p < 0.01) inhibited"}, {"measurement": "dermatitis score", "setting": "[8]; DNCB-induced mice, topical once daily, 1% compound 1 or 0.3% compound 2, p < 0.01 vs DNCB", "value": "significant reduction"}, {"measurement": "AD-like skin features (erythema, hemorrhage, dry skin)", "setting": "[8]; DNCB-induced mice, topical once daily, 1% compound 1 or 0.3% compound 2, vs DNCB alone", "value": "reduced levels of erythema and hemorrhage and dry skin"}, {"measurement": "skin feature of compound alone treated mice", "setting": "[8]; no DNCB, topical 1% compound 1 or 0.3% compound 2 with vehicle alone", "value": "normal skin feature, no sign of allergy was observed"}, {"measurement": "mast cell infiltration in the epidermis region (toluidine blue), number of mast cells", "setting": "[9]; topical 1% compound 1 or 0.3% compound 2, DNCB alone 97 ± 10.58, control 13 ± 2", "value": "56 ± 11", "unit": "per 350 μm^2"}, {"measurement": "CD4+ cells in the skin (immunohistochemistry)", "setting": "[9]; [14]", "value": "reduced levels of CD4+ cells"}, {"measurement": "epidermal thickening (H&E)", "setting": "[9]; [14]", "value": "reduced epidermal thickening"}, {"measurement": "infiltration of inflammatory cells into epidermis and dermis (H&E)", "setting": "[9]; [14]", "value": "reduced levels of inflammatory cells"}, {"measurement": "serum IL-4 level", "setting": "[10]; [15]", "value": "significantly reversed"}, {"measurement": "serum IL-5 level", "setting": "[10]; [15]", "value": "significantly reversed"}, {"measurement": "serum IL-17 level", "setting": "[10]; topical 1% compound 1 (p < 0.5) or 0.3% compound 2 (p < 0.01), vs DNCB alone", "value": "reduced level"}, {"measurement": "serum IFN-γ level (reduced by DNCB)", "setting": "[10]; topical 1% compound 1 or 0.3% compound 2", "value": "significantly reversed"}, {"measurement": "serum IgE level", "setting": "[10]; topical 1% compound 1 or 0.3% compound 2, p < 0.01 vs DNCB", "value": "significantly reduced"}, {"measurement": "intracellular levels of cAMP", "setting": "[11]", "value": "significantly improved"}, {"measurement": "LPS-induced TNF-α synthesis", "setting": "[12]", "value": "effectively inhibited"}]}
